# How the values were obtained:
# [1] = system: corn; assay: Example 13, Procedure II: Herbicide No. 1 + acetochlor (No. 6) with dichloroacetamide antidotes; format: in vivo
# Protocol: (§1) Containers were filled and compacted with a fumigated silt loam top soil to a depth of about 1.3 cm from the top of the container. A first container was designated as an untreated control, a second container was designated as a herbicide control, and a third container was designated as a herbicide + antidote test container. Each of the containers was seeded with a crop species. A measured amount of herbicide dispersed or dissolved in acetone was applied to a measured quantity of soil. To this same quantity of soil treated with herbicide, there was added a measured amount of antidote dispersed or dissolved in acetone. The quantity of soil treated with the herbicide and antidote was thoroughly mixed to incorporate the herbicide and antidote in the soil uniformly. The seed bed in the third container of soil was covered with the soil treated with the herbicide and antidote and the container was leveled. For each test series, the seed beds of the first and second containers were likewise covered by soil layers. the cover layer of the first container was not treated with herbicide or antidote.
# (§2) The containers were then placed on a bench in a greenhouse and sub-irrigated as required for the duration of the test. […] Plant response is measured in terms of percent injury. Antidote efficacy is indicated as the difference in plant injury by the herbicide(s) without the antidote and with the antidote.
# (§3) This procedure is the same as Procedure I, but modified in the manner that after incorporation of the chemicals (herbicide and antidote) the containers with the covered seedbed were treated with an initial overhead irrigation equivalent to 0.6 cm rainfall, then subsequently sub-irrigated as required on greenhouse benches.
# In this example a plurality of dichloroacetamide antidotes were tested for their safening efficacy against a herbicidal composition comprising Herbicide No. 1 and a co-herbicide, acetochlor (Herbicide No. 6) in corn in the presence of velvetleaf. The procedure used in this example was Procedure II above.
# [2] = system: corn; assay: Example 11, Procedure II: Herbicide No. 1 + metazachlor (No. 14) with antidotes; format: in vivo
# Protocol: as §1, §2, §3
# In this example, yet another α-chloroacetanilide co-herbicide, metazachlor (Herbicide No. 14) was combined with Herbicide No. 1 for investigation of the effect of various safeners on that composition. Metazachlor is the active ingredient in the commercial herbicide BUTISAN® S, used here as a 500 g/L formulation.
# [3] = system: barnyardgrass (Echinochloa crusgalli); assay: Example 9, Procedure II: Herbicide No. 1 + pretilachlor (No. 13) with antidotes; format: in vivo
# Protocol: as §1, §2, §3
# (§4) In the series of greenhouse tests described below, for routine screening purposes the herbicide/antidote compositions were tested in crop/weed combinations involving corn as the crop and either or both of the weeds barnyardgrass (Echinochloa crusgalli), a monocotyledonous weed, and velvetleaf (Abutilon theophrasti), a dicotyledonous weed. In the tables below, these weeds are indicated by the symbols "BYG" and "VL", respectively.
# (§5) In this example the safening effect on a composition comprising Herbicide No. 1 and another leading rice herbicide, i.e., Herbicide No. 13, was investigated using the same antidotes and test procedure described in the preceding example. Herbicide No. 13 is pretilachlor, active ingredient used in the commercial rice herbicides RIFIT®, SOFIT® and SOFIT® SUPER.
# [4] = system: velvetleaf (Abutilon theophrasti); assay: as above; format: in vivo
# Protocol: as §1, §2, §3, §4, §5
# [5] = system: corn; assay: Example 25, greenhouse preemergence test: Antidote Nos. 1 and 2 against Herbicide Nos. 1-3; format: in vivo, Corn (Pioneer 3424 variety); settings: Preemergence
# Summary of the method: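 Greenhouse preemergence application; herbicides as wettable powders, dichlormid as emulsifiable concentrate, naphthalic anhydride as conventional seed coating on corn before planting. Rates in g active ingredient/ha; naphthalic anhydride amount not quantified. Corn injury scored as percent growth inhibition.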
# [6] = system: corn; assay: Example 15, Procedure II: Herbicide No. 1 + butylate (No. 10) with antidotes; format: in vivo
# Protocol: as §1, §2, §3
# This example describes experiments designed to investigate the antidotal efficacy of a plurality of antidotes against the herbicidal action of a combination of Herbicide No. 1 and butylate in corn and the prevalent weeds barnyardgrass and velvetleaf. The antidotes used in these experiments were Nos. 1-10, 12, 13 and 15.
# The test procedure used in these experiments was that of Procedure II described above. The antidotes were applied to a soil cover layer by pipet after spraying the herbicides onto the soil, followed by incorporation and overhead irrigation.
# [7] = system: corn; assay: Example 3, Procedure I: antidotes against Herbicide No. 1; format: in vivo
# Summary of the method: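 Herbicide and antidote, each in acetone, mixed into a soil layer covering the seeded corn bed; untreated and herbicide-only controls run alongside. Greenhouse, sub-irrigated, barnyardgrass present; herbicide 4.48 down to 0.56 kg/ha. Percent injury scored; efficacy = injury without minus with antidote.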
# [8] = system: corn; assay: Example 5, Procedure I: Herbicide No. 1 + alachlor (No. 7) with Antidote Nos. 15 and 16; format: in vivo
# Summary of the method: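 Greenhouse pot test in silt loam; herbicide No. 1 plus alachlor co-herbicide and antidote, each applied in acetone, mixed into cover soil over seeded beds, sub-irrigated. Percent injury scored; antidote efficacy as injury difference without vs with antidote.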
# [9] = Herbicide No.1 0.56 kg/ha + Herbicide No.6 4.48 kg/ha, antidote rate 0.56 kg/ha
# [10] = Herbicide No.1 0.56 kg/ha + Herbicide No.6 4.48 kg/ha, antidote rate 2.24 kg/ha
# [11] = Herbicide No.6 4.48 kg/ha, no Herbicide No.1, antidote rate 0.56 kg/ha
# [12] = Herbicide No.6 4.48 kg/ha, no Herbicide No.1, antidote rate 2.24 kg/ha
# [13] = Herbicide No.1 0.56 kg/ha + Herbicide No.14 3.36 kg/ha, antidote rate 2.24 kg/ha
# [14] = Herbicide No.1 0.56 kg/ha + Herbicide No.14 3.36 kg/ha, antidote rate 8.96 kg/ha
# [15] = Herbicide No.1 1.12 kg/ha + Herbicide No.14 3.36 kg/ha, antidote rate 2.24 kg/ha
# [16] = Herbicide No.1 1.12 kg/ha + Herbicide No.14 3.36 kg/ha, antidote rate 8.96 kg/ha
# [17] = Herbicide No.1 0.14 kg/ha + Herbicide No.13 2.24 kg/ha, antidote rate 2.24 kg/ha
# [18] = Herbicide No.1 0.14 kg/ha + Herbicide No.13 2.24 kg/ha, antidote rate 8.96 kg/ha
# [19] = Herbicide No.1 0.56 kg/ha + Herbicide No.13 2.24 kg/ha, antidote rate 2.24 kg/ha
# [20] = Herbicide No.1 0.56 kg/ha + Herbicide No.13 2.24 kg/ha, antidote rate 8.96 kg/ha
# [21] = Herbicide No.1 0.56 kg/ha + Herbicide No.10 6.72 kg/ha, antidote rate 2.24 kg/ha
# [22] = Herbicide No.1 0.56 kg/ha + Herbicide No.10 6.72 kg/ha, antidote rate 8.96 kg/ha
# [23] = Herbicide No.1 1.12 kg/ha + Herbicide No.10 6.72 kg/ha, antidote rate 2.24 kg/ha
# [24] = Herbicide No.1 1.12 kg/ha + Herbicide No.10 6.72 kg/ha, antidote rate 8.96 kg/ha
smiles,measurement,setting,value
C=CCN(CC=C)C(=O)C(Cl)Cl [compound 1],% Injury Corn,[1]; [9],5%
same,% Injury Corn,[1]; [10],10%
same,% Injury Corn,[1]; [11],20%
same,% Injury Corn,[1]; [12],10%
same,% Injury Corn,[2]; [13],25%
same,% Injury Corn,[2]; [14],50%
same,% Injury Corn,[2]; [15],45%
same,% Injury Corn,[2]; [16],50%
same,% Injury BYG,[3]; [17],100%
same,% Injury BYG,[3]; [18],100%
same,% Injury BYG,[3]; [19],100%
same,% Injury BYG,[3]; [20],100%
same,% Injury VL,[4]; [17],75%
same,% Injury VL,[4]; [18],75%
same,% Injury VL,[4]; [19],85%
same,% Injury VL,[4]; [20],85%
same,% Inhibition Corn,[5]; Herbicide No. 1 0.25 G/ha + antidote 7.41 G/ha,23.2%
same,% Inhibition Corn,[5]; Herbicide No. 1 0.74 G/ha + antidote 7.41 G/ha,28.4%
same,% Inhibition Corn,[5]; Herbicide No. 1 2.5 G/ha + antidote 7.41 G/ha,26.2%
same,% Inhibition Corn,[5]; Herbicide No. 2 0.25 G/ha + antidote 7.41 G/ha,26.5%
same,% Inhibition Corn,[5]; Herbicide No. 2 0.74 G/ha + antidote 7.41 G/ha,28.9%
same,% Inhibition Corn,[5]; Herbicide No. 2 2.5 G/ha + antidote 7.41 G/ha,37.3%
same,% Inhibition Corn,[5]; Herbicide No. 3 0.07 G/ha + antidote 7.41 G/ha,9.3%
same,% Inhibition Corn,[5]; Herbicide No. 3 0.25 G/ha + antidote 7.41 G/ha,43.0%
same,% Inhibition Corn,[5]; Herbicide No. 3 0.74 G/ha + antidote 7.41 G/ha,83.9%
same,inhibition at 7.41 g/ha,"[5]; Zea mays, pre-emergence, antidote alone 7.41 G/ha, no herbicide, read-out: % Inhibition Corn",21%
same,% Injury Corn,[6]; [21],15%
same,% Injury Corn,[6]; [22],10%
same,% Injury Corn,[6]; [23],20%
same,% Injury Corn,[6]; [24],30%
CC1(C)OC(c2ccco2)CN1C(=O)C(Cl)Cl (centres unmarked) [compound 15],% Injury Corn,[7]; Herb. No. 1 0.56 kg/ha + antidote 0.56 kg/ha,0%
same,% Injury Corn,[7]; Herb. No. 1 0.56 kg/ha + antidote 2.24 kg/ha,0%
same,% Injury Corn,[7]; Herb. No. 1 0.56 kg/ha + antidote 8.96 kg/ha,0%
same,% Injury Corn,[7]; Herb. No. 1 1.12 kg/ha + antidote 0.56 kg/ha,0%
same,% Injury Corn,[7]; Herb. No. 1 1.12 kg/ha + antidote 2.24 kg/ha,0%
same,% Injury Corn,[7]; Herb. No. 1 1.12 kg/ha + antidote 8.96 kg/ha,0%
same,% Injury Corn,[7]; Herb. No. 1 2.24 kg/ha + antidote 0.56 kg/ha,15%
same,% Injury Corn,[7]; Herb. No. 1 2.24 kg/ha + antidote 2.24 kg/ha,0%
same,% Injury Corn,[7]; Herb. No. 1 2.24 kg/ha + antidote 8.96 kg/ha,0%
same,% Injury Corn,[7]; Herb. No. 1 4.48 kg/ha + antidote 0.56 kg/ha,0%
same,% Injury Corn,[7]; Herb. No. 1 4.48 kg/ha + antidote 2.24 kg/ha,5%
same,% Injury Corn,[7]; Herb. No. 1 4.48 kg/ha + antidote 8.96 kg/ha,0%
same,% Injury Corn,"[7]; antidote 8.96 kg/ha alone, no herbicide",0%
same,% Injury Corn,[1]; [9],5%
same,% Injury Corn,[1]; [10],15%
same,% Injury Corn,[1]; [11],5%
same,% Injury Corn,[1]; [12],15%
same,% Injury Corn,[2]; [13],65%
same,% Injury Corn,[2]; [14],65%
same,% Injury Corn,[2]; [15],25%
same,% Injury Corn,[2]; [16],40%
same,% Injury Corn,[8]; Herbicide No.1 4.48 + No.7 0.56 kg/ha + antidote 0.56 kg/ha,23%
same,% Injury Corn,[8]; Herbicide No.1 4.48 + No.7 0.56 kg/ha + antidote 2.24 kg/ha,40%
same,% Injury Corn,[8]; Herbicide No.1 4.48 + No.7 2.24 kg/ha + antidote 0.56 kg/ha,30%
same,% Injury Corn,[8]; Herbicide No.1 4.48 + No.7 2.24 kg/ha + antidote 2.24 kg/ha,23%
same,% Injury Corn,[8]; Herbicide No.1 6.72 + No.7 0.56 kg/ha + antidote 0.56 kg/ha,25%
same,% Injury Corn,[8]; Herbicide No.1 6.72 + No.7 0.56 kg/ha + antidote 2.24 kg/ha,25%
same,% Injury Corn,[8]; Herbicide No.1 6.72 + No.7 2.24 kg/ha + antidote 0.56 kg/ha,45%
same,% Injury Corn,[8]; Herbicide No.1 6.72 + No.7 2.24 kg/ha + antidote 2.24 kg/ha,50%
same,% Injury BYG,[3]; [17],100%
same,% Injury BYG,[3]; [18],100%
same,% Injury BYG,[3]; [19],99%
same,% Injury BYG,[3]; [20],100%
same,% Injury VL,[4]; [17],60%
same,% Injury VL,[4]; [18],90%
same,% Injury VL,[4]; [19],85%
same,% Injury VL,[4]; [20],75%
same,% Injury Corn,[6]; [21],20%
same,% Injury Corn,[6]; [22],10%
same,% Injury Corn,[6]; [23],15%
same,% Injury Corn,[6]; [24],15%

# Reference: EP0603240B1, “SAFENING HERBICIDAL PYRAZOLYLSULFONYLUREAS” (priority 1991, dated 1993)
